Data from patent US7112598B2, “κ opioid receptor agonist comprising 2-phenylbenzothiazoline derivative” (Santen Pharmaceutical Co., Ltd., priority 2002, dated 2006).
Counter-ions that a name gives are not always drawn.

Experiments:
[1] = tested on: mouse acetic acid writhing; assay: Antinociceptive action test by mouse acetic acid writhing method; type: in vivo; conditions: 30 mg/kg oral, 20 min before 0.7% acetic acid i.p., writhing counted 10 to 20 minutes after acetic acid, vs vehicle group, average of seven samples
Procedure: 2. Antinociceptive Action Tests by Mouse Acetic Acid Writhing Method
Accordingly, antinociceptive action tests of test compounds were carried out using the mouse acetic acid writhing method, and analgesic effects of the test compounds were evaluated.
Twenty minutes after oral administration of the test compound (30 mg/kg), the 0.7% acetic acid solution was administered intraperitoneally in a rate of 0.1 ml per 10 g of mouse weight.
Inhibition rates were calculated according to the following equation.
The antinociceptive action of the test compound was expressed in an inhibition rate to writhing numbers of a vehicle group.

human κ opioid receptor = human κ opioid receptor (Homo sapiens, UniProt P41145); assay: κ opioid receptor agonist activity test in GTP binding activity measurement system ([35S]GTPγS binding); type: biochemical; conditions: test compound concentration 10^−9 M, binding of 10^−6 M (−)-U50488 = 100%, human κ opioid receptor membrane preparation, average of duplicate
Chain of human κ opioid receptor (P41145 whole entry): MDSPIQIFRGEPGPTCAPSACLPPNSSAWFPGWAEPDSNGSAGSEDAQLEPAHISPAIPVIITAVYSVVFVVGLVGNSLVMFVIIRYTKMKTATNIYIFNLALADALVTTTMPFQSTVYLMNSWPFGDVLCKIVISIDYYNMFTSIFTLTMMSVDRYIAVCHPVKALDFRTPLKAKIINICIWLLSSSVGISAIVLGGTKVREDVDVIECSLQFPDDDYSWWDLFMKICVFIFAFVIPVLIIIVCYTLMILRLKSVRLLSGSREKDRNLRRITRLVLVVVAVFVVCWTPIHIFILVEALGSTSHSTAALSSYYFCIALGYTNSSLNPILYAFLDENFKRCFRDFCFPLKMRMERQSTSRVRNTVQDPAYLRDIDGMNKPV
Procedure: 1. κ Opioid Receptor Agonist Activity Tests in GTP Binding Activity Measurement System
Jinmin Zhu et al. reported a method of evaluating agonist activities of drugs on a κ opioid receptor wherein guanosine 5′-triphosphate (GTP) radiolabelled with a human κ opioid receptor is used in J. Pharmaco. Exp. Ter., 282, 676–684 (1997). κ opioid receptor agonist activities (actions) of test compounds were evaluated according to the method described in the above-mentioned literature.
N-2-Hydroxyethylpiperazine-N′-2-ethanesulfonic acid (HEPES, 4.77 g), magnesium chloride hexahydrate (2.03 g), sodium chloride (5.84 g), disodium […] (EDTA•2Na, 0.37 g), DL-dithiothreitol (DTT, 0.15 g) and bovine serum albumin (BSA, 1.0 g) were dissolved in ultrapure water, pH was adjusted to 7.4 with sodium hydroxide, and further ultrapure water was added to the mixture so that a total amount was one liter to prepare a incubation buffer.
Nine volume of the incubation buffer was added to one volume of dimethyl sulfoxide (DMSO) to prepare a 10% DMSO-incubation buffer.
Tris(hydroxymethyl)aminomethane hydrochloride (TRIZA-HCl, 66.1 g) and Tris(hydroxymethyl)aminomethane (TRIZA-Base, 9.7 g) were dissolved in ultrapure water so that a total amount was 10 liters to prepare a 50 mM Tris-hydrochloric acid buffer (pH 7.4).
A human κ opioid receptor membrane preparation (100 unit/ml) was diluted 60 times with the incubation buffer under ice-cold to prepare a human κ opioid receptor membrane preparation solution. The membrane preparation solution was preserved under ice-cold.
A test compound was dissolved in 100% DMSO to prepare a 10^−3 M test compound solution, and then the incubation buffer was added to the 10^−3 M test compound solution to prepare a 10^−4 M test compound solution. Next, the 10% dimethyl sulfoxide-incubation buffer was added to the 10^−4 M test compound solution to prepare a 10^−5 M, 10^−6 M, 10^−7 M, 10^−8 M or 10^−9 M test compound solution.
A drug (−)-U50488 (J. Pharmacol. Exp. Ther., 224, 7–12 (1983)), which is known as a κ opioid receptor agonist, was used as a positive control drug in the tests.
(−)-U-50488 was dissolved in 100% DMSO to prepare a 10^−3 M positive control drug solution, and then the incubation buffer was added to the 10^−3 M positive control drug solution to prepare a 10^−4 M positive control drug solution. Next, the 10% DMSO-incubation buffer was added to the 10^−4 M positive control drug solution to prepare a 10^−6 M positive control drug solution.
GDP was dissolved in ultrapure water to prepare a 10^−3 M GDP solution, and the incubation buffer was added to the 10^−3 M GDP solution to prepare a 10^−5 M GDP solution.
10^−3 M [^35S]GTPγS was diluted with the incubation buffer to prepare 10^−9 M radiolabelled reagent.
• 1. The incubation buffer (50 μl), the 10^−5 M GDP solution (50 μl), the human κ opioid receptor membrane preparation solution (300 μl), the test compound solution and the 10^−9 M radiolabelled reagent (50 μl) were put into a glass tube, and then the mixture was incubated at 30° C. for 60 minutes. • 2. The 50 mM Tris-hydrochloric acid buffer (pH 7.4) was added to the mixture to stop the reaction, the reaction mixture was suction-filtered with a GF/B filter, and then the residue on the GF/B filter was washed with the 50 mM Tris-hydrochloric acid buffer (3 ml) three times. • 3. The GF/B filter was air-dried, and then the residue on the GF/B filter was taken out with an antomatic dispenser and transfered into a vial. • 4. Scintisol EX-H (5 ml) was introduced into the vial to prepare a sample solution, and then radioactivity in the sample solution was measured with a liquid scintillation counter for one minute. The radioactivity was expressed in “cpm” (counts per minute). Calculation Formula of κ Opioid Receptor Agonist Activity
Each agonist activity of the test compound on the κ opioid receptor was expressed in [^35S]GTPγS binding % when [^35S]GTPγS binding of 10^−6 M (−)-U50488 was 100%. […]

Compound	Inhibition rate (%) [1] [%]	[^35S]GTP γ S binding % (human κ opioid receptor) [%]	also measured
COc1ccc(OCCCN(C)C(C)C)c(C2Sc3cc(Cl)ccc3N2C(C)=O)c1 (single isomer, unassigned; (+)) [Compound No. 9-12, (+)-3-Acetyl-6-chloro-2-[2-(3-(N-isopropyl-N-methylamino)propoxy)-5-methoxyphenyl]benzothiazoline Hydrochloride]	57.8	107.9	
CCOCCN(CCCOc1ccc(OC)cc1C1Sc2ccccc2N1C(C)=O)C(C)C (single isomer, unassigned; (+)) [Compound No. 11-1, (+)-3-Acetyl-2-[2-(3-(N-(2-ethoxyethyl)-N-isopropylamino)propoxy)-5-methoxyphenyl]benzothiazoline Hydrochloride]			inhibition in vivo at 30 mg/kg ([1]; read-out: Inhibition rate (%)): 98.3%; activation at 0.001 µM (human κ opioid receptor; read-out: [^35S]GTP γ S binding %): 66.8%
COc1ccc(OCCCN(CCO)C(C)C)c(C2Sc3cc(Cl)ccc3N2C(C)=O)c1 (stereo not drawn) [Compound No. 3-2, 3-Acetyl-6-chloro-2-[2-(3-(N-(2-hydroxyethyl)-N-isopropylamino)-propoxy)-5-methoxyphenyl]benzothiazoline Hydrochloride]			Inhibition rate (%) ([1]; Hydrochloride, 30 mg/kg): 76.1%; [^35S]GTP γ S binding % (human κ opioid receptor; Hydrochloride): 66.5%
COCCN(CCCOc1ccc(OC)cc1C1Sc2cc(Cl)ccc2N1C(C)=O)C(C)C (stereo not drawn) [Compound No. 3-25, 3-Acetyl-6-chloro-2-[2-(3-(N-isopropyl-N-(2-methoxyethyl)amino)-propoxy)-5-methoxyphenyl]benzothiazoline Hydrochloride]	91.0	67.9	
CCOCCN(CCCOc1ccc(OC)cc1C1Sc2cc(Cl)ccc2N1C(C)=O)C(C)C (stereo not drawn) [Compound No. 3-33, 3-Acetyl-6-chloro-2-[2-(3-(N-(2-ethoxyethyl)-N-isopropylamino)-propoxy)-5-methoxyphenyl]benzothiazoline Hydrochloride]			Inhibition rate (%) ([1]; Hydrochloride, 30 mg/kg): 99.5%; [^35S]GTP γ S binding % (human κ opioid receptor; Hydrochloride): 75.8%
COc1ccc(OCCCN(CCO)C(C)C)c(C2Sc3ccc(Cl)cc3N2C(C)=O)c1 (stereo not drawn) [Compound No. 5-3, 3-Acetyl-5-chloro-2-[2-(3-(N-(2-hydroxyethyl)-N-isopropylamino)-propoxy)-5-methoxyphenyl]benzothiazoline Hydrochloride]	51.6	51.2	
COc1ccc(OC(C)CCN(CCO)C(C)C)c(C2Sc3cc(Cl)ccc3N2C(C)=O)c1 (stereo not drawn) [Compound No. 7-2, 3-Acetyl-6-chloro-2-[2-(3-(N-(2-hydroxyethyl)-N-isopropylamino)-1-methylpropoxy)-5-methoxyphenyl]benzothiazoline Hydrochloride]	70.0	62.9	
COCOCCN(CCCOc1ccc(OC)cc1C1Sc2cc(Cl)ccc2N1C(C)=O)C(C)C (stereo not drawn) [Compound No. 20-1, 3-Acetyl-6-chloro-2-[2-(3-(N-isopropyl-(N-(2-methoxymethyloxy-ethyl))amino)propoxy)-5-methoxyphenyl]benzothiazoline]	94.8	65.1	
COCCOCOCCN(CCCOc1ccc(OC)cc1C1Sc2cc(Cl)ccc2N1C(C)=O)C(C)C (stereo not drawn) [Compound No. 20-2, 3-Acetyl-6-chloro-2-[2-(3-(N-isopropyl-N-(2-(2-methoxyethoxymethoxy)-ethyl)amino)propoxy)-5-methoxyphenyl]benzothiazoline]	81.7	50.5	
